Measured values reported in patent US7018817B1, “Process for the preparation of compounds with enhanced optical purity” (DSM IP Assets B.V., priority 1998, dated 2006).

What was measured:
[1] = system: known peptide deformylases; conditions: Rajagopalan et al., Biochemistry 1997; cited from earlier work
[2] = biological target: T1, PDF(Fe) (peptide deformylase) (Escherichia coli, UniProt P0A6K3); test: Enantioselective enzymatic deformylation of N-formyl compounds by PDF(Fe), HPLC analysis; type: biochemical, E. coli
T1 construct: made in house; host or cells: overproducing E. coli cells
T1 sequence (P0A6K3 whole entry): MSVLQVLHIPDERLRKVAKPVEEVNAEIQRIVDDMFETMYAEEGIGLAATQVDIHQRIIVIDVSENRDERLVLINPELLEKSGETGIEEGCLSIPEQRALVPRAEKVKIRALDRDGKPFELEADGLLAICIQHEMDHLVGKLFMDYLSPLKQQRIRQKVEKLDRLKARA
Method: PDF(Fe) was isolated from overproducing E. coli cells grown at 30° C. in 1.6 l TB medium for 14–16 h. About 13 g (wet weight) cell paste were suspended in 26 ml buffer (20 mM Hepes/KOH, 100 mM KF, pH 7.7 supplemented with 10 μg/ml catalase from bovine liver (Boehringer Mannheim) and 1 mM AEBSF, disintegrated by sonication (Branson B12, 20 min) at 0° C. and centrifuged at 200.000 g for 1 h. The clear supernatant (1.3 g of protein; according to biurete reaction) was mixed with 1.3 ml 10% (w/v) Polymin G-35 (BASF) adjusted to pH 7.7 and centrifuged at 40.000 g for 10 min. The supernatant was applied to a 20 ml Met-Lys-Sepharose column that had been equilibrated with 20 mM Hepes/KOH, 100 mM KF, 0.2 mM TCEP, pH 7.7. After washing with 120 ml of 20 mM Hepes/KOH, 100 mM KF, 0.2 mM TCEP, pH 7.7, PDF(Fe) was eluted with 150 ml 20 mM Hepes/KOH, 100 mM KCl, 0.2 mM TCEP, pH 7.7. The protein containing fractions were concentrated by ultrafiltration using an Amicon PM10 membrane (yield: 140 mg protein, 1400 U/mg; determined according to Groche et al.). After adjustment of the TCEP concentration to 1 mM and protein concentration to 40 mg/ml, the PDF(Fe) stock solution (40 mg/ml=2 mM) was stored frozen at −60° C. After thawing, the PDF(Fe) stock solution could be used directly in the deformylation experiments described below. If however solutions with lower PDF(Fe) concentrations were required for these deformylation experiments, the PDF stock solution was diluted further in 20 mM Hepes/KOH, pH 7.7, 100 mM KCl, 1 mg/ml bovine serum albumin, 10 μg/ml catalase solution.
In all cases HPLC conditions had to be developed in which the two deformylated isomers were separated from each other and from the formylated isomers. To this end two different techniques were applied that is method 1 and method 2, as described below.
From the quantities of deformylated isomers in the samples after various reaction times, both the initial deformylation rate constant (kf and ks in M^−1s^−1) could be calculated for both enantiomers, as well as the respective ee values. The enantioselectivity of the enzyme (E value) was calculated by taking the ratio of kf/ks and is given for all Examples in table 1, as well as the maximum ee value (eemax) observed during the experiments.
A Crownpak CR(+) column (4×150 mm) was used. Samples (5 μl) withdrawn from the deformylation mixture were mixed with 95 μl aqueous HClO4 (10 mM) to inactivate PDF(Fe). Following a brief centrifugation, 20 μl of the supernatant were applied to the Crownpak CR(+) column. For specific chromatographic conditions and retention times see table 2.
Method 2 (Precolumn derivatization with o-phthaldialdehyde (OPA) and N-acetyl-L-cysteine (NAC). Samples (25 μl) withdrawn from the deformylation mixture were mixed with 25 μl aqueous HClO4 (100 mM) to inactivate PDF(Fe). Following a brief centrifugation, 40 μl of the supernatant were added to 80 μl 1 M aqueous H3BO3/NaOH pH 9.4, subsequently 20 μl OPA reagent (consisting of OPA in H2O/CH3OH 1:1 v/v with a concentration as indicated in table 3) and 20 μl NAC reagent (consisting of NAC in H2O/CH3OH 1:1 v/v with a concentration as indicated in table 3) was added. After the time indicated in table 3 derivatization was terminated by addition of 80 μl (250 mM) aqueous H3PO4, and 20 μl of the solution were instantaneously applied to a Nucleosil 120-5 C18 (250×4 mm) column. Temperature was always ambient and detection was spectrophotometric using a wavelength of 257 nm and/or 340 nm. The used eluent was a mixture of aqueous 0.05 M H3PO4 brought at pH 7.0 with 1 M NaOH, and a percentage of acetonitrile as indicated in table 3. For derivatization of valine aminonitrile borate buffer was adjusted to pH 11 and addition of NAC reagent was done 10 min after OPA reagent had been added. Concentration of H3PO4 used for termination was 500 mM. Derivatization and separation conditions as well as the observed retention times for the deformylated compounds analyzed are compiled in table 3. […]

[3] = system: L-aminoacylases; conditions: U.S. Pat. No. 4,745,067; cited from earlier work
[4] = Method B: absence of Li2SO4, 100 mM MOPS/NaOH, 250 mM NaCl, 0.1 mg/ml catalase, pH 7.2, 37° C.
[5] = Method A: 100 mM MOPS/NaOH, 2 M Li2SO4, pH 7.2, 37° C.
[6] = Method C: absence of Li2SO4, 100 mM MES/NaOH, pH 6.2, 37° C.

Compound | E (enantioselectivity, kf/ks) [2, 4] | eemax (maximum ee value observed) [2, 4] | kf (rate of deformylation of the most rapidly deformylated enantiomer) [2, 4] | ks (rate of deformylation of the least rapidly deformylated enantiomer) [2, 4] [M⁻¹ s⁻¹] | E (enantioselectivity, kf/ks) [2, 5] | eemax (maximum ee value observed) [2, 5] | kf (rate of deformylation of the most rapidly deformylated enantiomer) [2, 5] | ks (rate of deformylation of the least rapidly deformylated enantiomer) [2, 5] [M⁻¹ s⁻¹] | further results
CSCC[C@H](NC=O)C(=O)O [N-formylmethionine] | – | – | – | – | – | – | – | – | deformylase activity of known peptide deformylases towards the substrate [1]: no or little activity
O=CNC(C(=O)O)c1ccccc1 (stereo not drawn) [Example 1, N-formyl-phenylglycine] | 2255 | 99,6% | 10,6 M^−1s^−1 | 0.0047 | – | – | – | – | –
CC(C)C(C#N)NC=O (stereo not drawn) [Example 10, N-formyl-valine aminonitrile] | – | – | – | – | 47,9 | 95,5% | 29,7 M^−1s^−1 | 0.62 | –
N-acetyl-phenylglycine amide [Comparative Experiment A, reference compound] | – | – | – | – | – | – | <0,001 M^−1s^−1 | <0.001 | –
N#CC(Cc1ccccc1)NC=O (stereo not drawn) [Example 9, N-formyl-phenylalanine aminonitrile] | – | – | – | – | – | – | – | – | E (enantioselectivity, kf/ks) [2, 6]: 880; eemax (maximum ee value observed) [2, 6]: 98,8%; kf (rate of deformylation of the most rapidly deformylated enantiomer) [2, 6]: 880 M⁻¹ s⁻¹; ks (rate of deformylation of the least rapidly deformylated enantiomer) [2, 6]: 1 M⁻¹ s⁻¹
CC(NC=O)c1cccc2ccccc12 (stereo not drawn) [Example 12, N-formyl-1-(1-naphthyl)-ethylamine] | – | – | – | – | 15 | 90% | 0,45 M^−1s^−1 | 0.03 | –
O=CN1CCC[C@H]1C(=O)O [Comparative Experiment B, N-formyl-proline, reference compound] | – | – | – | – | – | – | <0,004 M^−1s^−1 | <0.004 | –
COc1cccc(CC(C#N)NC=O)c1 (stereo not drawn) [Example 11, N-formyl-m-methoxy-phenylalanine aminonitrile] | 685 | 99,0% | 1370 M⁻¹ s⁻¹ | 2 | – | – | – | – | –
CSCC[C@H](NC=O)C(=O)O [N-formyl-L-methionine] | – | – | – | – | – | – | – | – | activity of L-aminoacylases towards the substrate [3]: low
O=CNC(CC(=O)O)c1ccccc1 (stereo not drawn) [Example 2, N-formyl-3-amino-3-phenyl-propionic acid] | >1775 | 100% | 7,1 M^−1s^−1 | <0.004 | – | – | – | – | –
C[C@@H](CO)NC=O [Example 8, N-formyl-alaninol] | – | – | – | – | 12 | 85,6% | 0,22 M^−1s^−1 | 0.018 | –
O=CNC(CO)c1ccccc1 (stereo not drawn) [Example 6, N-formyl-phenylglycinol] | 23,8 | 90,5% | 0,69 M^−1s^−1 | 0.029 | 18,5 | 93,3% | 6,3 M^−1s^−1 | 0.34 | –
